Laboratory results from patent publication US20030144269A1, “Reducing pulse pressures and vascular stiffness in hypertensive patients by administering a vasopeptidase inhibitor” (priority 2001, published 2003).

Columns and labels:
[1] = system: patients with systolic or mixed systolic-diastolic hypertension; assay: Double-blind 12-week comparison of omapatrilat and enalapril: trough pulsatile hemodynamics (cuff pressure, arterial tonometry, Doppler flow); format: in vivo, human; settings: for Brachial pressures: Systolic pressure: trough (24 h after last dose), titrated to 80 mg omapatrilat or 40 mg enalapril; for Brachial pressures: Systolic pressure / PfPb Temporal overlap / Augmentation index / Brachial pressures: Diastolic pressure / Brachial pressures: Mean pressure / Brachial pressures: Pulse pressure / Carotid-femoral PWV / Carotid-radial PWV / Central hemodynamics: Heart rate / Central hemodynamics: Mean flow / Central hemodynamics: Peak flow / Central hemodynamics: Peripheral resistance (DSC) / Central hemodynamics: Pulse pressure / Central hemodynamics: Systolic pressure / Central stiffness parameters: Characteristic impedance (DSC) / Central stiffness parameters: First impedance modulus (DSC) / Central stiffness parameters: Proximal aortic compliance (CD) / End-systolic pressure / Forward wave, Pf / PbPf Amplitude ratio / Pressure at ti / Reflected wave arrival time, ti / Reflected wave, Pb / Systolic ejection period: mean ± SD; for PfPb Temporal overlap: % of systolic ejection period; for change in characteristic impedance / reduction in mean arterial pressure: change from baseline at 12 weeks; for change in characteristic impedance: only subjects with reduction in mean arterial pressure between 0 and −40 mmHg; for reduction in mean arterial pressure: only subjects with reduction in mean arterial pressure between 0 and −40 mmHg (68 omapatrilat, 59 enalapril); for changes in regional pulse wave velocities (carotid-femoral and carotid-radial) (FIG. 4): in vivo
Protocol: The following study was performed to compare treatment with the vasopeptidase inhibitor omapatrilat and the angiotensin converting enzyme inhibitor enalapril.
Study subjects. Male or female subjects age 18 years or older were eligible if they were in sinus rhythm and had systolic or mixed systolic-diastolic hypertension, defined as a seated systolic blood pressure ≧160 mmHg if newly diagnosed or ≧140 mmHg if currently treated and diastolic blood pressure ≦110 mmHG. Patients with known or suspected secondary forms of hypertension were excluded. Patients with a history of transient ischemic attacks within the prior 12 months or myocardial infarction or angina within the prior 6 months were excluded. All patients with heart failure, documented ejection fraction <45%, valvular heart disease or clinically significant peripheral vascular disease (bruit or diminished pulse in any of the brachial, radial, femoral or carotid arteries or blood pressure difference between upper extremities >6 mmHg) were excluded. Additional exclusion criteria included renal or renovascular disease, uncontrolled diabetes (glucose >200 mg/dl fasting or >220 mg/dL nonfasting), autoimmune disease, multiple drug allergies, bronchospastic disease requiring chronic medication. Laboratory exclusion criteria included hemoglobin <9 g/dl, platelet count <80,000/μl, white cell count <3000/μl, neutrophil count <1500/μl, serum potassium <3.5 or >5.2 mmol/L, alanine aminotransferase or aspartate aminotransferase greater than three times the upper limits of normal or serum creatinine >2.5 mg/dL. Failure to obtain a technically satisfactory baseline study, as determined by the core lab, was an exclusion criterion. If an initial baseline study had potentially remediable technical limitations, a repeat study was allowed within 2-9 days.
Treatment protocol: A single-blind placebo lead-in period of 1-2 weeks, during which the seated blood pressure was confirmed to be ≧160 mmHg and <200 mmHg and the diastolic pressure ≦110 mmHg, after withdrawl of antihypertensive medications, was followed by a double-blind active treatment period of 12 weeks. Baseline hemodynamic studies were performed at the end of the placebo lead-in period between 6:00 and 10:00 a.m. with the patient in a fasting state prior to taking morning medications and off all antihypertensive medications for at least 1 week. Patients were randomized within 2-9 days following an approved baseline study. Treatment was initiated with either 10 mg omapatrilat or 10 mg enalapril and was titrated at two and four weeks to doses of 40 then 80 mg omapatrilat or 20 then 40 mg enalapril. […] No concomitant antihypertensive medications were permitted during the study. A trough hemodynamic study, the primary endpoint of the trial was performed at the end of the active treatment period, 24 hours after the last prior dose of study medication, under identical conditions as the baseline study. Patients were then given one additional dose of study medication, which was followed 4 hours later by a final (peak) hemodynamic study. In order to focus on long-term effects of therapy, the primary endpoint of the study was prospectively defined as the trough change from baseline in pulsatile hemodynamics.
Hemodynamic data acquisition: Subjects were studied in the supine position after approximately 10 minutes of rest. Using a semi-automated computer-controlled device, auscultatory blood pressure was obtained 3-5 times at 2 minute intervals with a goal of obtaining 3 sequential readings that agreed to within 5 mmHg for systolic and diastolic. Arterial tonometry and ECG were obtained form the brachial, radial, femoral and carotid arteries using a custom transducer. Next, the patient was placed in the left lateral decubitus position and echocardiographic images of the left ventricular outflow tract were obtained from a parasternal long axis view. […]

[2] = system: patients who had left ventricular dysfunction and class II-IV congestive heart failure; settings: cited from earlier work

Compound | shortening of the systolic ejection period ([1]; 12 weeks, trough) | Brachial pressures: Systolic pressure ([1]; 12 weeks) [mmHg] | PfPb Temporal overlap ([1]; 12 weeks, trough) [%] | Augmentation index ([1]; 12 weeks, trough) [%] | Brachial pressures: Diastolic pressure ([1]; 12 weeks, trough) [mmHg] | Brachial pressures: Mean pressure ([1]; 12 weeks, trough) [mmHg] | Brachial pressures: Pulse pressure ([1]; 12 weeks, trough) [mmHg] | Carotid-femoral PWV ([1]; 12 weeks, trough) [m/s] | Carotid-radial PWV ([1]; 12 weeks, trough) [m/s] | Central hemodynamics: Heart rate ([1]; 12 weeks, trough) [min⁻¹] | Central hemodynamics: Mean flow ([1]; 12 weeks, trough) [mL/s] | Central hemodynamics: Peak flow ([1]; 12 weeks, trough) [mL/s] | Central hemodynamics: Peripheral resistance (DSC) ([1]; 12 weeks, trough) [dyne × sec / cm^5] | Central hemodynamics: Pulse pressure ([1]; 12 weeks, trough) [mmHg] | Central hemodynamics: Systolic pressure ([1]; 12 weeks, trough) [mmHg] | Central stiffness parameters: Characteristic impedance (DSC) ([1]; 12 weeks, trough) [dyne × sec / cm^5] | Central stiffness parameters: First impedance modulus (DSC) ([1]; 12 weeks, trough) [dyne × sec / cm^5] | Central stiffness parameters: Proximal aortic compliance (CD) ([1]; 12 weeks, trough) | End-systolic pressure ([1]; 12 weeks, trough) [mmHg] | Forward wave, Pf ([1]; 12 weeks, trough) [mmHg] | further results
O=C(N[C@H]1CCS[C@H]2CCC[C@@H](C(=O)O)N2C1=O)[C@H](S)Cc1ccccc1 (relative stereo) [Omapatrilat, [4S-[4α(R*),7α,10aβ]]-octahydro-4-[(2-mercapto-1-oxo-3-phenylpropyl)amino]-5-oxo-7H-pyrido[2,1-b][1,3]thiazepine-7-carboxylic acid] | not seen | 147 ± 20 | 64 ± 12 | 19 ± 13 | 76 ± 11 | 105 ± 13 | 71 ± 18 | 11.4 ± 3.1 | 10.1 ± 1.4 | 64 ± 9 | 73 ± 16 | 312 ± 68 | 1986 ± 449 | 71 ± 22 | 147 ± 24 | 208 ± 70 | 323 ± 119 | 0.53 ± 0.26^† 10^−5 cm^4 / dyne | 114 ± 16 | 54 ± 16 | PbPf Amplitude ratio ([1]; 12 weeks, trough): 47 ± 7%; Pressure at ti ([1]; 12 weeks, trough): 132 ± 20 mmHg; Reflected wave arrival time, ti ([1]; 12 weeks, trough): 116 ± 36 ms; Reflected wave, Pb ([1]; 12 weeks, trough): 25 ± 7 mmHg; Systolic ejection period ([1]; 12 weeks, trough): 320 ± 26 ms; peripheral resistance ([1]; 12 weeks, trough, versus enalapril): reduced more; amplitude of the forward pressure wave ([1]; 12 weeks, unchanged peak flow): markedly reduced; change in characteristic impedance adjusted for baseline mean arterial pressure and change in mean arterial pressure ([1]; 12 weeks, versus enalapril, P<0.05): remained significant; change in characteristic impedance [1]: −37±58 dyne×sec/cm^5; reduction in mean arterial pressure [1]: −13.8±7.4 mmHg; changes in central pulse pressure (FIG. 2) ([1]; compared to enalapril): greater reduction in the central pulse pressure compared to enalapril; change in peripheral (brachial) systolic, diastolic, and pulse pressure (FIG. 1) ([1]; compared to enalapril, p<0.05): greater reductions in all measurements; changes in regional pulse wave velocities (carotid-femoral and carotid-radial) (FIG. 4) [1]: reduced regional pulse wave velocity; arrival time of the reflected wave (FIG. 4) ([1]; p<0.05): delayed reflected wave arrival time; characteristic impedance, a direct measure of aortic stiffness (FIG. 3) ([1]; without a change in aortic flow): significantly reduced; carotid-femoral pulse wave velocity [2]: favorable trend toward reduction
CCOC(=O)[C@H](CCc1ccccc1)N[C@@H](C)C(=O)N1CCC[C@H]1C(=O)O [Enalapril, reference compound] | shortening of the systolic ejection period | 155 ± 20 | 66 ± 8 | 21 ± 10 | 81 ± 10 | 111 ± 12 | 74 ± 20 | 11.9 ± 3.7 | 10.6 ± 1.8 | 63 ± 8 | 73 ± 16 | 314 ± 70 | 2122 ± 462 | 75 ± 23 | 156 ± 24 | 231 ± 94 | 352 ± 163 | 0.49 ± 0.28 10^−5 cm^4 / dyne | 120 ± 14 | 58 ± 17 | PbPf Amplitude ratio ([1]; 12 weeks, trough): 46 ± 8%; Pressure at ti ([1]; 12 weeks, trough): 139 ± 17 mmHg; Reflected wave arrival time, ti ([1]; 12 weeks, trough): 108 ± 25 ms; Reflected wave, Pb ([1]; 12 weeks, trough): 27 ± 8 mmHg; Systolic ejection period ([1]; 12 weeks, trough): 319 ± 27 ms; change in characteristic impedance [1]: −4±67 dyne×sec/cm^5; reduction in mean arterial pressure [1]: −12.0±8.1 mmHg; changes in regional pulse wave velocities (carotid-femoral and carotid-radial) (FIG. 4) [1]: reduced regional pulse wave velocity
